US20240174690A1, “ANNULATED 2-AMINO-3-CYANO THIOPHENES AND DERIVATIVES FOR THE TREATMENT OF CANCER” (BOEHRINGER INGELHEIM INTERNATIONAL GMBH, priority 2021, published 2024)

Biological target: KRAS (WT)::SOS1 (Homo sapiens (Human), UniProt P01116, C118S)
Experiment: KRAS::SOS1 AlphaScreen binding assay, KRAS WT
Conditions: not given
In short: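 Compounds (up to 100 μM, eleven fivefold dilutions in duplicate) were incubated 30 min with KRAS 1-169 (10 nM, or 7.5 nM for G12C), GST-SOS1 564-1049 (5 nM for G12D/G12C, 10 nM for others) and 10 μM GDP in PBS buffer with BSA and Tween. Donor/acceptor beads were then added for 60 min at room temperature, and IC50 came from a 4-parameter fit of the AlphaScreen signal.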

Chain of KRAS (WT)::SOS1 (P01116 other isoform, or with tags, fused parts or gaps C118S): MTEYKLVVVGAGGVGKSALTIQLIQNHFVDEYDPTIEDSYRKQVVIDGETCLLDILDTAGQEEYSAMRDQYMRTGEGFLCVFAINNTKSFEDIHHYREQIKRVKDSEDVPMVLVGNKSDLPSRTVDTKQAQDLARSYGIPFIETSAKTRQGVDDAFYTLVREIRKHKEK

In order of falling IC50:
1. C[C@H](Oc1nc(-c2onc3c2CCC[C@@]32CCCc3sc(N)c(C#N)c32)cc(N2CCNC3(CC3)C2)n1)[C@@H]1CCCN1C [I-2]  42 nM
2. C[C@H](Oc1cc(N2CCNC3(CCC3)C2)nc(-c2onc3c2CCC[C@@]32CCCc3sc(N)c(C#N)c32)n1)[C@@H]1CCCN1C [I-3]  7 nM
3. C[C@H](Oc1cc(N2CCN(C)C3(COC3)C2)nc(-c2onc3c2CCC[C@@]32CCCc3sc(N)c(C#N)c32)n1)[C@@H]1C[C@@H](F)CN1C [I-37]  4 nM
4. C[C@H](Oc1cc(-c2ccn(C[C@@H](C)O)n2)nc(-c2onc3c2CCC[C@@]32CCCc3sc(N)c(C#N)c32)n1)[C@@H]1CCCN1C [I-30]  3 nM

Tested on: MKN1 cells
Experiment: MKN1 CTG proliferation assay (120 h) (gastric cancer, wt amplified)
Format: cell-based
Conditions: Homo sapiens, MKN-1, assay 1, CTG 120 h, read-out: MKN1 (assay 1) IC50
In short: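 MKN1 gastric cancer cells (200–500 per well, RPMI + 10% FCS) given a logarithmic compound dose series and incubated 120 h. Viability by CellTiter-Glo luminescence as percent of DMSO controls. IC50 by four-parameter non-linear regression.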

COCCNC(=O)c1ccn(-c2cc(O[C@@H](C)[C@@H]3CCCN3C)nc(-c3onc4c3CCC[C@@]43CCCc4sc(N)c(C#N)c43)n2)n1 [I-58] showed an IC50 of 25 nM.

Same assay, conditions: Homo sapiens, MKN-1, assay 2, CTG 120 h, read-out: MKN1 (assay 2) IC50

In order of falling IC50:
1. CO[C@@H]1C[C@@H]([C@H](C)Oc2cc(N3CCN(C)C4(CC4)C3)nc(-c3onc4c3CCC[C@@]43CCCc4sc(N)c(C#N)c43)n2)N(C)C1 [I-50]  785 nM
2. CO[C@H]1CCN(C)[C@@H]1[C@H](C)Oc1cc(N2CCNC3(CC3)C2)nc(-c2onc3c2CCC[C@@]32CCCc3sc(N)c(C#N)c32)n1 [I-49]  335 nM

Same assay, conditions: Homo sapiens, MKN-1, assay 3, CTG 120 h, read-out: MKN1 (assay 3) IC50

In order of falling IC50:
1. C[C@H](Oc1cc(Cl)nc(-c2onc3c2CCC[C@@]32CCCc3sc(N)c(C#N)c32)n1)[C@@H]1CCCN1C [I-1]  1730 nM
2. C[C@H](Oc1cc(N2CCNCC2)nc(-c2noc3c2CCC[C@@]32CCCc3sc(N)c(C#N)c32)n1)[C@@H]1CCCN1C [II-45]  1480 nM
3. C[C@H](Oc1cc(N2C[C@@H](N(C)C)[C@@H](O)C2)nc(-c2noc3c2CCC[C@@]32CCCc3sc(N)c(C#N)c32)n1)[C@@H]1CCCN1C [II-10]  1260 nM
4. [2H]C([2H])([2H])N1C[C@H](F)C[C@H]1[C@H](C)Oc1cc(N2CCN(C)C3(CC3)C2)nc(-c2noc3c2CCC[C@@]32CCCc3sc(N)c(C#N)c32)n1 [II-209]  670 nM
5. CO[C@@H]1C[C@@H]([C@H](C)Oc2cc(N3CCN(C)C4(CC4)C3)nc(-c3onc4c3CCC[C@@]43CCCc4sc(N)c(C#N)c43)n2)N(C)C1 [I-50]  627 nM
6. C[C@H](Oc1cc(-c2cnsc2)nc(-c2onc3c2CCC[C@@]32CCCc3sc(N)c(C#N)c32)n1)[C@@H]1CCCN1C [I-27]  396 nM
7. CCOC(=O)c1ccn(-c2cc(O[C@@H](C)[C@@H]3CCCN3C)nc(-c3noc4c3CCC[C@@]43CCCc4sc(N)c(C#N)c43)n2)n1 [II-23]  172 nM
8. CO[C@H]1CCN(C)[C@@H]1[C@H](C)Oc1cc(N2CCNC3(CC3)C2)nc(-c2onc3c2CCC[C@@]32CCCc3sc(N)c(C#N)c32)n1 [I-49]  152 nM
9. C[C@H](Oc1cc(-c2ccn(C)n2)nc(-c2noc3c2CCC[C@@]32CCCc3sc(N)c(C#N)c32)n1)[C@@H]1C[C@@H](F)CN1C [II-27]  116 nM
10. CO[C@H]1CCN(C)[C@@H]1[C@H](C)Oc1cc(-n2ccc(C(=O)N[C@@H]3CCOC3)n2)nc(-c2onc3c2CCC[C@@]32CCCc3sc(N)c(C#N)c32)n1 [I-53]  48 nM
11. COCCNC(=O)c1ccn(-c2cc(O[C@@H](C)[C@@H]3[C@@H](OC)CCN3C)nc(-c3onc4c3CCC[C@@]43CCCc4sc(N)c(C#N)c43)n2)n1 [I-55]  39 nM
12. C[C@H](Oc1cc(-n2ccc(C(=O)N(C)C3COC3)n2)nc(-c2onc3c2CCC[C@@]32CCCc3sc(N)c(C#N)c32)n1)[C@@H]1CCCN1C [I-60]  32 nM
13. CO[C@H]1CCN(C)[C@@H]1[C@H](C)Oc1cc(-n2ccc(C(=O)N[C@H]3CCOC3)n2)nc(-c2onc3c2CCC[C@@]32CCCc3sc(N)c(C#N)c32)n1 [I-54]  26 nM
14. C[C@H](NC(=O)c1ccn(-c2cc(O[C@@H](C)[C@@H]3CCCN3C)nc(-c3onc4c3CCC[C@@]43CCCc4sc(N)c(C#N)c43)n2)n1)c1ccccn1 [I-59]  26 nM
15. C[C@H](Oc1cc(-n2ccc(C(=O)N[C@H]3CCOC3)n2)nc(-c2onc3c2CCC[C@@]32CCCc3sc(N)c(C#N)c32)n1)[C@@H]1CCCN1C [I-57]  19 nM
16. CO[C@H]1CCN(C)[C@@H]1[C@H](C)Oc1cc(-n2ccc(CC(=O)NC(C)C)n2)nc(-c2onc3c2CCC[C@@]32CCCc3sc(N)c(C#N)c32)n1 [I-48]  17 nM
17. COCCNC(=O)c1ccn(-c2cc(O[C@@H](C)[C@@H]3CCCN3C)nc(-c3onc4c3CCC[C@@]43CCCc4sc(N)c(C#N)c43)n2)n1 [I-58]  17 nM

Same assay, conditions: assay 3, CTG 120 h, read-out: MKN1 (assay 3) IC50

C[C@H](Oc1cc(-c2ccn(C)n2)nc(-c2onc3c2CCC[C@@]32CCCc3sc(N)c(C#N)c32)n1)[C@@H]1CCCN1C [I-21] gave an IC50 of 149 nM.
